In US6004790A, “Cyclomaltodextrin glucanotransferase variants” (priority 1995, dated 1999) one finds Ki data, which are given here for one compound.

What all share (test): Kinetic studies of β-cyclodextrin forming activity on Paselli SA2 with and without β-cyclodextrin (product inhibition)
Common to all, as to assay type: biochemical

The target in test [1] is T1, Bacillus circulans Strain 251 CGTase variant Y633A (Niallia circulans, UniProt P43379, Y660A).
T1 construct: a high extracellular production of wild-type enzyme and CGTase variants was obtained reproducibly; made in house; host or cells: Bacillus subtilis Strain DB104A (plasmid pDP66K)
T1 sequence (P43379 28-713 Y660A): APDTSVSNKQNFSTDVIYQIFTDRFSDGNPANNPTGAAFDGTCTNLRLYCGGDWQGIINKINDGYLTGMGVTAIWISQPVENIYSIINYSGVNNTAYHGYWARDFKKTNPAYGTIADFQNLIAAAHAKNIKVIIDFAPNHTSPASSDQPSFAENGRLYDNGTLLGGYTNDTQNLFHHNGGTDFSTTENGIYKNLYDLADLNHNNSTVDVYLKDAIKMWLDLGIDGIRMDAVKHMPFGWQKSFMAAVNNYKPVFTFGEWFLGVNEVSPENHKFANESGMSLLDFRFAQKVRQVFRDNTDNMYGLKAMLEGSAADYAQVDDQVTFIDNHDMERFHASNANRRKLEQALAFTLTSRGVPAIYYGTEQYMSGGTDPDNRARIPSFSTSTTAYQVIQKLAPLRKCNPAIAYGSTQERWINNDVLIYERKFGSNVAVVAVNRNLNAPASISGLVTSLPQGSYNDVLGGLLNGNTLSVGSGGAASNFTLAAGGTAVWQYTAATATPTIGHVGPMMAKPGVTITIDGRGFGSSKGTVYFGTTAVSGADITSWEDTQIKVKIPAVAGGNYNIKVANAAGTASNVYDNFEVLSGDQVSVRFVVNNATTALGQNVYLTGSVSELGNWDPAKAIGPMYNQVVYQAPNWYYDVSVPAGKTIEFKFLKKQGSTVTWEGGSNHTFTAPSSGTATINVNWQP
On the procedure:
(§1) β-cyclodextrin Forming Activity: β-cyclodextrin forming activity was determined using 5% Paselli™ SA2 (i.e. partially hydrolysed potato starch with an average degree of polymerization of 50, available from AVEBE, Foxhol, The Netherlands) as substrate and after incubation for 3 minutes at 50° C. 0.1-0.1 units of activity were used. The β-cyclodextrin formed was determined based on its ability to form a stable colorless inclusion complex with phenolphthalein. One unit of activity is defined as the amount of enzyme able to form 1 μmol of β-cyclodextrin per minute.
(§2) Kinetic Studies: Kinetic studies on Paselli™ SA2 (AVEBE, Foxhol, The Netherlands) were performed by determination of the β-cyclodextrin forming activity of the enzyme on Paselli™ concentrations ranging from 0 to 5%, with and without addition of 0.1 or 0.2 mM of β-cyclodextrin. In these experiments approx. 0.6 μg/ml (0.15-0.18 units) of enzyme was used.
(§3) The data collected from these kinetic and binding studies were fitted using the Hill equation, yielding Ymax and K50 values for the binding studies, and Vmax and K50 values for the kinetic studies. Ki values were calculated as follows. [formula] Results

For test [2], the target named is T2, Bacillus circulans Strain 251 CGTase (cyclomaltodextrin glucanotransferase), wild type, SEQ ID NO: 70 (Niallia circulans, UniProt P43379).
T2 construct: a high extracellular production of wild-type enzyme and CGTase variants was obtained reproducibly; made in house; host or cells: Bacillus subtilis Strain DB104A (plasmid pDP66K)
T2 sequence (P43379 28-713): as the sequence (P43379 28-713 Y660A) above, with A633Y counted along it
The settings on record: inhibition by β-cyclodextrin (0.1 or 0.2 mM), substrate 0-5% Paselli SA2, 50° C., Hill equation fit. On the procedure: as §1, §2, §3

Test [3] deals with T3, Bacillus circulans Strain 251 CGTase variant W616A/W662A (Niallia circulans, UniProt P43379, W643A/W689A).
T3 construct: a high extracellular production of wild-type enzyme and CGTase variants was obtained reproducibly; made in house; host or cells: Bacillus subtilis Strain DB104A (plasmid pDP66K)
T3 sequence (P43379 28-713 W643A/W689A): as the sequence (P43379 28-713 Y660A) above, with W616A, A633Y, W662A counted along it
On the procedure: as §1, §2, §3

Usually Ki stands for the dissociation constant of the complex between target and ligand, obtained from inhibition or displacement. Read a high Ki as weaker binding. On to `OC[C@H]1O[C@@H]2O[C@H]3[C@H](O)[C@@H](O)[C@@H](O[C@H]4[C@H](O)[C@@H](O)[C@@H](O[C@H]5[C@H](O)[C@@H](O)[C@@H](O[C@H]6[C@H](O)[C@@H](O)[C@@H](O[C@H]7[C@H](O)[C@@H](O)[C@@H](O[C@H]8[C@H](O)[C@@H](O)[C@@H](O[C@H]1[C@H](O)[C@H]2O)O[C@@H]8CO)O[C@@H]7CO)O[C@@H]6CO)O[C@@H]5CO)O[C@@H]4CO)O[C@@H]3CO` [β-cyclodextrin], for which the values for the Ki in test [1], in test [2] and in test [3] were 210 µM, 380 µM and 1110 µM, respectively.
